Reference: patent US20250250230A1, “HETEROCYCLIC COMPOUND” (TAKEDA PHARMACEUTICAL COMPANY LIMITED, priority 2022, published 2025)

target: T1, human orexin type 2 receptor (Homo sapiens, UniProt O43614); experiment: Measurement of orexin type 2 receptor agonist activity (calcium fluorescence, Fluo-4 AM, FDSS); assay type: cell-based; details: test compound 3 μM; CHO cells expressing human OX2 receptor; DMSO = 0%, orexin A (human) = 100%
T1 construct: expressed in transfected cells
T1 sequence (O43614 1-444): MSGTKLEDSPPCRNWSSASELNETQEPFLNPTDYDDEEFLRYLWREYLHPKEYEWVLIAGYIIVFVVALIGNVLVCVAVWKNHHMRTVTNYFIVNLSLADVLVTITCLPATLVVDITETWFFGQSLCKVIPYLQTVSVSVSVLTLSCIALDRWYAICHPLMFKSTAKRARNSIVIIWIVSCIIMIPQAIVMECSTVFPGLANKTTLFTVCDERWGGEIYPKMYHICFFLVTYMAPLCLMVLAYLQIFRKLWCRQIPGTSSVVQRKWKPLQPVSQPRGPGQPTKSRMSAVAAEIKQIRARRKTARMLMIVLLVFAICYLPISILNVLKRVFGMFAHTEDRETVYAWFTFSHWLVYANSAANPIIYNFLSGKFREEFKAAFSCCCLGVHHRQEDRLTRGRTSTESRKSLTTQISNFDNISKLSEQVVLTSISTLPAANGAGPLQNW
How it was run: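 Agonist response scaled between vehicle (0%) and human orexin A at 10 nM final (100%), from 2-min kinetic Fluo-4 fluorescence reads. Stable hOX2R CHO-K1 clone, dye-loaded in HBSS/20 mM HEPES/0.1% BSA with 1.25 mM probenecid before compound addition.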

OX2R agonist activity (3 μM, %) [%]	Structure (SMILES)
79	CS(=O)(=O)NC1CCCN(C(=O)C2CC2c2ccccc2-c2cccc(F)c2F)CC1 (racemic) [Example 54, a mixture of rac-N-{(4R)-1-[(1R,2R)-2-(2′,3′-difluoro[1,1′-biphenyl]-2-yl)cyclopropane-1-carbonyl]azepan-4-yl}methanesulfonamide and rac-N-{(4S)-1-[(1R,2R)-2-(2′,3′-difluoro[1,1′-biphenyl]-2-yl)cyclopropane-1-carbonyl]azepan-4-yl}methanesulfonamide]
90	CS(=O)(=O)NC1CCN(C(=O)C2CC2c2ccc(C(F)F)cc2-c2c(F)cccc2F)C1 (racemic) [Example 228, a mixture of rac-N-[(3R)-1-{(1R,2R)-2-[5-(difluoromethyl)-2′,6′-difluoro[1,1′-biphenyl]-2-yl]cyclopropane-1-carbonyl}pyrrolidin-3-yl]methanesulfonamide and rac-N-[(3S)-1-{(1R,2R)-2-[5-(difluoromethyl)-2′,6′-difluoro[1,1′-biphenyl]-2-yl]cyclopropane-1-carbony}pyrrolidin-3-yl]methanesulfonamide]
99	CCS(=O)(=O)NC[C@@H]1[C@H](F)CN1C(=O)C1(COC)CC1c1ccc(F)cc1-c1c(F)cccc1F (stereo partly drawn) [Example 437, N-({(2R,3R)-3-fluoro-1-[(1R,2S)-1-(methoxymethyl)-2-(2′,5,6′-trifluoro[1,1′-biphenyl]-2-yl)cyclopropane-1-carbonyl]azetidin-2-yl}methyl)ethanesulfonamide, or N-({(2R,3R)-3-fluoro-1-[(1S,2R)-1-(methoxymethyl)-2-(2′,5,6′-trifluoro[1,1′-biphenyl]-2-yl)cyclopropane-1-carbonyl]azetidin-2-yl}methyl)ethanesulfonamide]
89	CS(=O)(=O)NC1CCN(C(=O)C2CC2c2c(F)cccc2-c2ccccc2Cl)C1 (racemic) [Example 126, a mixture of rac-N-{(3R)-1-[(1R,2R)-2-(2′-chloro-3-fluoro[1,1′-biphenyl]-2-yl)cyclopropane-1-carbonyl]pyrrolidin-3-yl}methanesulfonamide and rac-N-{(3S)-1-[(1R,2R)-2-(2′-chloro-3-fluoro[1,1′-biphenyl]-2-yl)cyclopropane-1-carbonyl]pyrrolidin-3-yl}methanesulfonamide]
56	CS(=O)(=O)NC1CCCN(C(=O)C2CC2c2cc(F)ccc2-c2c(F)cccc2F)C1 (racemic) [Example 98, a mixture of rac-N-{(3R)-1-[(1R,2R)-2-(2′,4,6′-trifluoro[1,1′-biphenyl]-2-yl)cyclopropane-1-carbonyl]piperidin-3-yl}methanesulfonamide and rac-N-{(3S)-1-[(1R,2R)-2-(2′,4,6′-trifluoro[1,1′-biphenyl]-2-yl)cyclopropane-1-carbonyl]piperidin-3-yl}methanesulfonamide]
88	CC1[C@@H](NS(C)(=O)=O)CCN1C(=O)[C@@H]1C[C@H]1c1ccccc1-c1c(F)cccc1F (mixture of isomers) [Example 261, a mixture of N-{(2R,3R)-1-[(1R,2R)-2-(2′,6′-difluoro[1,1′-biphenyl]-2-yl)cyclopropane-1-carbonyl]-2-methylpyrrolidin-3-yl}methanesulfonamide and N-{(2S,3S)-1-[(1R,2R)-2-(2′,6′-difluoro[1,1′-biphenyl]-2-yl)cyclopropane-1-carbonyl]-2-methylpyrrolidin-3-yl}methanesulfonamide]
103	CS(=O)(=O)N[C@H]1C[C@@H](F)CN(C(=O)[C@@H]2C[C@H]2c2ccccc2-c2c(F)cccc2F)C1 [Example 232, N-{(3S,5R)-1-[(1R,2R)-2-(2′,6′-difluoro[1,1′-biphenyl]-2-yl)cyclopropane-1-carbonyl]-5-fluoropiperidin-3-yl}methanesulfonamide]
99	CN(C)S(=O)(=O)NC[C@@H]1CCN1C(=O)C1CC1c1c(F)cccc1-c1c(F)cccc1F (stereo partly drawn) [Example 314, N,N-dimethyl-N′-({(2S)-1-[(1R,2R)-2-(2′,3,6′-trifluoro[1,1′-biphenyl]-2-yl)cyclopropane-1-carbonyl]azetidin-2-yl}methyl)sulfuric diamide, or N,N-dimethyl-N′-({(2S)-1-[(1S,2S)-2-(2′,3,6′-trifluoro[1,1′-biphenyl]-2-yl)cyclopropane-1-carbonyl]azetidin-2-yl}methyl)sulfuric diamide]
72	CO[C@@H]1CN(C(=O)[C@@H]2C[C@@]2(F)c2ccccc2-c2c(F)cccc2F)[C@@H]1CNS(C)(=O)=O [Example 383, N-({(2R,3R)-1-[(1S,2S)-2-(2′,6′-difluoro[1,1′-biphenyl]-2-yl)-2-fluorocyclopropane-1-carbonyl]-3-methoxyazetidin-2-yl}methyl)methanesulfonamide]
109	C[C@H]1C[C@H](NS(C)(=O)=O)CN1C(=O)[C@@H]1C[C@H]1c1ccccc1-c1c(F)cccc1F [Example 262, N-{(3S,5S)-1-[(1R,2R)-2-(2′,6′-difluoro[1,1′-biphenyl]-2-yl)cyclopropane-1-carbonyl]-5-methylpyrrolidin-3-yl}methanesulfonamide]
92	O=C([C@@H]1C[C@@]1(F)c1ccc(F)cc1-c1c(F)cccc1F)N1C[C@@H](F)[C@H]1CNS(=O)(=O)CF [Example 430, 1-fluoro-N-({(2R,3R)-3-fluoro-1-[(1S,2S)-2-fluoro-2-(2′,5,6′-trifluoro[1,1′-biphenyl]-2-yl)cyclopropane-1-carbonyl]azetidin-2-yl}methyl)methanesulfonamide]
91	CS(=O)(=O)N[C@H]1CCCN(C(=O)C2C(c3ccccc3-c3c(F)cccc3F)C2(F)F)C1 (stereo partly drawn) [Example 330, N-{(3S)-1-[(1R,3R)-3-(2′,6′-difluoro[1,1′-biphenyl]-2-yl)-2,2-difluorocyclopropane-1-carbonyl]piperidin-3-yl}methanesulfonamide, or N-{(3S)-1-[(1S,3S)-3-(2′,6′-difluoro[1,1′-biphenyl]-2-yl)-2,2-difluorocyclopropane-1-carbonyl]piperidin-3-yl}methanesulfonamide]
89	CS(=O)(=O)NCC1CCCN(C(=O)C2CC2c2ccccc2-c2c(F)cccc2F)C1 (racemic) [Example 128, a mixture of rac-N-({(3R)-1-[(1R,2R)-2-(2′,6′-difluoro[1,1′-biphenyl]-2-yl)cyclopropane-1-carbonyl]piperidin-3-yl}methyl)methanesulfonamide and rac-N-({(3S)-1-[(1R,2R)-2-(2′,6′-difluoro[1,1′-biphenyl]-2-yl)cyclopropane-1-carbonyl]piperidin-3-yl}methyl)methanesulfonamide]
100	CS(=O)(=O)NC1CCCN(C(=O)C2CC2c2ccc(F)cc2-c2c(F)cccc2F)CC1 (racemic) [Example 153, a mixture of rac-N-{(4R)-1-[(1R,2R)-2-(2′,5,6′-trifluoro[1,1′-biphenyl]-2-yl)cyclopropane-1-carbonyl]azepan-4-yl}methanesulfonamide and rac-N-{(4S)-1-[(1R,2R)-2-(2′,5,6′-trifluoro[1,1′-biphenyl]-2-yl)cyclopropane-1-carbonyl]azepan-4-yl}methanesulfonamide]
80	Cc1cc(-c2c(F)cccc2F)c(C2CC2C(=O)N2CC[C@H](NS(C)(=O)=O)C2)cn1 (mixture of isomers) [Example 268, a mixture of rac-N-[(3R)-1-{(1R,2R)-2-[4-(2,6-difluorophenyl)-6-methylpyridin-3-yl]cyclopropane-1-carbonyl}pyrrolidin-3-yl]methanesulfonamide and rac-N-[(3S)-1-{(1R,2R)-2-[4-(2,6-difluorophenyl)-6-methylpyridin-3-yl]cyclopropane-1-carbonyl}pyrrolidin-3-yl]methanesulfonamide]
100	CCS(=O)(=O)NC[C@@H]1[C@H](F)CN1C(=O)C1CC1(F)c1ccccc1-c1ccccc1F (stereo partly drawn) [Example 442, N-({(2R,3R)-3-fluoro-1-[(1R,2R)-2-fluoro-2-(2′-fluoro[1,1′-biphenyl]-2-yl)cyclopropane-1-carbonyl]azetidin-2-yl}methyl)ethanesulfonamide, or N-({(2R,3R)-3-fluoro-1-[(1S,2S)-2-fluoro-2-(2′-fluoro[1,1′-biphenyl]-2-yl)cyclopropane-1-carbonyl]azetidin-2-yl}methyl)ethanesulfonamide]
95	COCC1(NS(C)(=O)=O)CCN(C(=O)[C@@H]2C[C@@]2(F)c2ccccc2-c2c(F)cccc2F)C1 (stereo partly drawn) [Example 373, N-[(3R)-1-[(1S,2S)-2-(2′,6′-difluoro[1,1′-biphenyl]-2-yl)-2-fluorocyclopropane-1-carbonyl]-3-(methoxymethyl)pyrrolidin-3-yl]methanesulfonamide, or N-[(3S)-1-[(1S,2S)-2-(2′,6′-difluoro[1,1′-biphenyl]-2-yl)-2-fluorocyclopropane-1-carbonyl]-3-(methoxymethyl)pyrrolidin-3-yl]methanesulfonamide]
